Data reported in ChEMBL document CHEMBL5126668, “The Invention of WM382, a Highly Potent PMIX/X Dual Inhibitor toward the Treatment of Malaria” (ACS Med Chem Lett, 2022).

Key:
Plasmodium falciparum [1] = experiment: Antimalarial activity against asexual blood stage Plasmodium falciparum infected in RBC measured after 72 hrs by LDH release assay; type: functional, organism-based; settings: Erythrocyte
Plasmepsin X = Plasmepsin X (Plasmodium falciparum (isolate 3D7), UniProt Q8IAS0); experiment: Inhibition of Plasmodium falciparum 3D7 HA-glms-tagged PMX using DABCYL-HSFIQEGKEE-EDANS as substrate measured after 2 hrs by FRET assay
Plasmodium falciparum [2] = experiment: Antimalarial activity Plasmodium falciparum Dd2 assessed as EC90 fold pressure measured up to 62 days by microscopy; type: functional; settings: Dd2, 1488 h, time <= 62 day
Plasmodium falciparum [3] = experiment: Antimalarial activity Plasmodium falciparum Dd2 assessed as minimum inoculum for resistance measured up to 62 days by microscopy; type: functional; settings: time <= 62 day
Plasmepsin IX = biological target: T1, Plasmepsin IX (Plasmodium falciparum, UniProt Q8ILG2); experiment: Inhibition of Plasmodium falciparum 3D7 HA-glms-tagged PMIX using DABCYL-HSFIQEGKEE-EDANS as substrate measured after 2 hrs by FRET assay
T1 sequence (Q8ILG2 whole entry): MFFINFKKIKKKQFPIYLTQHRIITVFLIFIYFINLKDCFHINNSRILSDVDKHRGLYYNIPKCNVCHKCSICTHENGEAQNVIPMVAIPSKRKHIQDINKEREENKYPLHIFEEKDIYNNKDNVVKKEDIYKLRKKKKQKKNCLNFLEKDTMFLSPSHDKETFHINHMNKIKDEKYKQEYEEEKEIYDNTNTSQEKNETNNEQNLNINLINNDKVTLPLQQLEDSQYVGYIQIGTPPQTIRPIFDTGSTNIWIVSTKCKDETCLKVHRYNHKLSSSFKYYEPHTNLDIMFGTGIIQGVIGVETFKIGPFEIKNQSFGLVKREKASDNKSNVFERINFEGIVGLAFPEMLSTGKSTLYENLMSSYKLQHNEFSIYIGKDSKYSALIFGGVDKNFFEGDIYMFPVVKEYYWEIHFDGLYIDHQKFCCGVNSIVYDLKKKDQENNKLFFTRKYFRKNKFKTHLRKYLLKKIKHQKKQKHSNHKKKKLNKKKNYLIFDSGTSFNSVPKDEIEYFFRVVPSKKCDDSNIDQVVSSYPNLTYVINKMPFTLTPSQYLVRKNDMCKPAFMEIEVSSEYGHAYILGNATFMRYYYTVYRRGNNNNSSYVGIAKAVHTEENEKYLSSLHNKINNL

[4] = biological target: Plasmepsin X (Plasmodium falciparum (isolate 3D7)) (UniProt Q8IAS0); experiment: Inhibition of Plasmodium falciparum 3D7 HA-glms-tagged PMX at 10 nM using DABCYL-HSFIQEGKEE-EDANS as substrate measured after 2 hrs by FRET assay relative to control
[5] = biological target: T2, Plasmepsin IX (Plasmodium falciparum) (UniProt Q8ILG2); experiment: Inhibition of Plasmodium falciparum 3D7 HA-glms-tagged PMIX at 10 nM using DABCYL-HSFIQEGKEE-EDANS as substrate measured after 2 hrs by FRET assay relative to control
T2 sequence (whole entry): T1 sequence (Q8ILG2 whole entry)

Chain of Plasmepsin X (Q8IAS0 whole entry): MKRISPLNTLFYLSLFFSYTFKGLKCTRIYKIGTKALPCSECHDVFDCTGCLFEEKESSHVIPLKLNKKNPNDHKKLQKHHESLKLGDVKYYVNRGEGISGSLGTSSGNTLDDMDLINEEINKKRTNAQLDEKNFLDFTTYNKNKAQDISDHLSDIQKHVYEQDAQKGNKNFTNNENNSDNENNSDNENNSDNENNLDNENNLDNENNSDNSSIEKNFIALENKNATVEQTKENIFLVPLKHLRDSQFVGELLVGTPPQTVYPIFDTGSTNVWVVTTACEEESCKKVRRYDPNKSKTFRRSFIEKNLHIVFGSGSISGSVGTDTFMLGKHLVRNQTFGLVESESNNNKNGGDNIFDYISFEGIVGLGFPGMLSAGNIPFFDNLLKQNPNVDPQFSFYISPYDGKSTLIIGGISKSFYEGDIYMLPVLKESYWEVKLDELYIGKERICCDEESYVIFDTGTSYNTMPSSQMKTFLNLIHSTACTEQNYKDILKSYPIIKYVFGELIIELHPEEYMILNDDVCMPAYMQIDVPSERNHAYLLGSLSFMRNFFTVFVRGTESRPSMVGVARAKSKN
Chain of Plasmepsin X (Plasmodium falciparum (isolate 3D7)) (Q8IAS0 whole entry): as above

EC50 (Plasmodium falciparum [1]) [nM]	SMILES	further results
10	CC(C)C[C@H](c1ccc(C(F)(F)F)c(C(=O)N2Cc3nccnc3C2)c1)N1C(=N)N[C@](CC2CC2)(c2ccccc2)CC1=O	IC50 (Plasmepsin X): 5.7 nM
340	CC(C)[C@]1(C)CC(=O)N(Cc2cc(F)cc(C(=O)N[C@@H](C)c3ccccc3)c2)C(=N)N1	–
> 1000	C[C@H](NC(=O)c1cc(F)cc(CN2C(=N)N[C@]3(C)CCCC[C@]3(C)C2=O)c1)c1ccccc1	–
> 1000	C[C@H](NC(=O)c1cc(F)cc(CN2C(=N)NC(c3ccccc3)CC2=O)c1)c1ccccc1 (single isomer, unassigned)	–
1	CCC1(CC)CC(=O)N([C@H](c2ccccc2)c2cccc(C(=O)N[C@@H](C)c3ccccc3)c2)C(=N)N1	–
> 1000	CCC1(CC)NC(=N)N(Cc2cc(F)cc(C(=O)N[C@@H](C)c3ccccc3)c2)C1=O	–
210	CCC1(CC)CC(=O)N([C@H](CCO)c2cccc(C(=O)N[C@@H](C)c3ccccc3)c2)C(=N)N1	–
64	CC(C)[C@]1(C)CC(=O)N(Cc2cccc(C(=O)NC3CCNc4ccccc43)c2)C(=N)N1 (mixture of isomers)	–
1	CCC1(CC)CC(=O)N([C@H](c2cccnc2)c2cccc(C(=O)N[C@@H](C)c3ccccc3)c2)C(=N)N1	–
250	C[C@H](NC(=O)c1cc(F)cc(CN2C(=N)NC3(CCCCC3)CC2=O)c1)c1ccccc1	–
2.8	CCC1(CC)CC(=O)N([C@@H]2CCOc3ccc(C(=O)N[C@H]4CCCOc5ccccc54)cc32)C(=N)N1	IC50 (Plasmepsin X): 0.6 nM; IC50 (Plasmepsin IX): 68 nM
220	CCC1(CC)CC(=O)N([C@@H]2CCOc3ccc(C(=O)NC4CC(=O)Oc5ccccc54)cc32)C(=N)N1 (mixture of isomers)	inhibition [4]: 40%; inhibition [5]: 12%
22	C[C@H](NC(=O)c1cc(F)cc(CN2C(=N)N[C@@](CC3CC3)(c3ccccc3)CC2=O)c1)c1ccccc1	–
12	CCC1(CC)CC(=O)N(Cc2cc(C(=O)N[C@H]3CCOc4ccccc43)ccn2)C(=N)N1	–
1.4	CCC1(CC)CC(=O)N([C@@H]2CCOc3ccc(C(=O)N[C@@H]4c5ccccc5OC4(C)C)cc32)C(=N)N1	IC50 (Plasmepsin X): 0.4 nM; IC50 (Plasmepsin IX): 12 nM
114	CCC1(CC)CC(=O)N(Cc2cccc(C(=O)N[C@@H](C)c3ccccc3)c2)C(=N)N1	–
18	CCC1(CC)CC(=O)N([C@@H]2CCOc3ccc(C(=O)N[C@H]4CCS(=O)(=O)c5ccccc54)cc32)C(=N)N1	IC50 (Plasmepsin X): 0.3 nM; IC50 (Plasmepsin IX): 24 nM
> 1000	C[C@H](NC(=O)c1cc(F)cc(CN2C(=N)NC(C)(C)CC2=O)c1)c1ccccc1	–
> 1000	CC(NC(=O)c1cccc(CN2C(=N)N[C@](C)(C(C)C)CC2=O)c1)c1ccccn1 (mixture of isomers)	–
66	CC(C)[C@]1(C)CC(=O)N(Cc2cccc(C(=O)NC3CCc4ccccc43)c2)C(=N)N1 (mixture of isomers)	–
17	CCC1(CC)CC(=O)N(Cc2ccnc(C(=O)N[C@H]3CCOc4ccccc43)c2)C(=N)N1	–
1.5	CC(C)[C@]1(C)CC(=O)N(Cc2cccc(C(=O)N[C@H]3CCOc4ccccc43)c2)C(=N)N1	–

SMILES	EC50 (Plasmodium falciparum [1]) [nM]	further results
CC(C)[C@]1(C)CC(=O)N(C(c2ccccc2)c2cccc(C(=O)N[C@@H](C)c3ccccc3)c2)C(=N)N1 (some centres undefined)	6.2	EC90 (Plasmodium falciparum [2]): 80 nM; Activity (Plasmodium falciparum [3]): >9
